{
  "source": "patent US20230085307A1",
  "about": "“PYRIDAZINONE COMPOUND AND HERBICIDE” (NISSAN CHEMICAL CORPORATION, priority 2019, published 2023)",
  "key": {"barnyard grass [1]": {"tested_on": "barnyard grass", "assay": "Test Example 5: herbicidal effect by foliage application, plastic box (Table 20, symbol H)", "assay_type": "in vivo, barnyard grass (Echinochloa crus-galli)", "method_in_brief": "(§1)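 Foliar spray test: emulsion formulation diluted in water to a set application rate, sprayed onto 14-day-old plants raised in diluvial soil at 25° C to 30° C under glass. Both herbicidal effect and crop effect rated visually three weeks later.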"}, "redroot pigweed": {"tested_on": "redroot pigweed", "assay": "Test Example 5: herbicidal effect by foliage application, plastic box (Table 20, symbol N)", "assay_type": "in vivo, redroot pigweed (Amaranthus retroflexus)", "method_in_brief": "as §1"}, "green foxtail": {"tested_on": "green foxtail", "assay": "Test Example 5: herbicidal effect by foliage application, plastic box (Table 20, symbol G)", "assay_type": "in vivo, green foxtail (Setaria viridis)", "method_in_brief": "as §1"}, "barnyard grass [2]": {"tested_on": "barnyard grass", "assay": "Test Example 3: herbicidal effect by foliage application, Wagner pot (Table 18, symbol H)", "assay_type": "in vivo, barnyard grass (Echinochloa crus-galli)", "conditions": "for herbicidal effect on barnyard grass (H): 320 g/ha", "method_in_brief": "(§2)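 Plants were sown in alluvial soil held under 0.1–0.5 cm standing water and grown 14 days in a greenhouse at 25–30 °C. An emulsifiable formulation, water-diluted to the set dose, was then sprayed onto the foliage, and effects were scored three weeks later using previously defined criteria.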"}, "rice flat sedge": {"tested_on": "rice flat sedge", "assay": "Test Example 3: herbicidal effect by foliage application, Wagner pot (Table 18, symbol E)", "assay_type": "in vivo, rice flat sedge (Cyperus iria)", "conditions": "for herbicidal effect on rice flat sedge (E): 320 g/ha", "method_in_brief": "as §2"}, "blackgrass": {"tested_on": "blackgrass", "assay": "Test Example 5: herbicidal effect by foliage application, plastic box (Table 20, symbol J)", "assay_type": "in vivo, blackgrass (Alopecurus myosuroides)", "method_in_brief": "as §1"}, "Italian ryegrass": {"tested_on": "Italian ryegrass", "assay": "Test Example 5: herbicidal effect by foliage application, plastic box (Table 20, symbol K)", "assay_type": "in vivo, Italian ryegrass (Lolium multiflorum)", "method_in_brief": "as §1"}, "chickweed": {"tested_on": "chickweed", "assay": "Test Example 5: herbicidal effect by foliage application, plastic box (Table 20, symbol P)", "assay_type": "in vivo, common chickweed (Stellaria media)", "method_in_brief": "as §1"}, "persian speedwell": {"tested_on": "persian speedwell", "assay": "Test Example 5: herbicidal effect by foliage application, plastic box (Table 20, symbol R)", "assay_type": "in vivo, Persian speedwell (Veronica persica)", "method_in_brief": "as §1"}, "Chinese sprangletop": {"tested_on": "Chinese sprangletop", "assay": "Test Example 3: herbicidal effect by foliage application, Wagner pot (Table 18, symbol D)", "assay_type": "in vivo, chinese sprangletop (Leptochloa chinensis)", "conditions": "for herbicidal effect on Chinese sprangletop (D): 320 g/ha", "method_in_brief": "as §2"}, "southern crabgrass": {"tested_on": "southern crabgrass", "assay": "Test Example 5: herbicidal effect by foliage application, plastic box (Table 20, symbol F)", "assay_type": "in vivo, southern crabgrass (Digitaria ciliaris)", "method_in_brief": "as §1"}, "lambsquarters": {"tested_on": "lambsquarters", "assay": "Test Example 5: herbicidal effect by foliage application, plastic box (Table 20, symbol O)", "assay_type": "in vivo, lambsquarters (Chenopodium album)", "method_in_brief": "as §1"}, "velvetleaf": {"tested_on": "velvetleaf", "assay": "Test Example 5: herbicidal effect by foliage application, plastic box (Table 20, symbol M)", "assay_type": "in vivo, velvetleaf (Abutilon theophrasti)", "method_in_brief": "as §1"}, "windgrass": {"tested_on": "windgrass", "assay": "Test Example 5: herbicidal effect by foliage application, plastic box (Table 20, symbol L)", "assay_type": "in vivo, windgrass (Apera spica-venti)", "method_in_brief": "as §1"}, "wild oat": {"tested_on": "wild oat", "assay": "Test Example 5: herbicidal effect by foliage application, plastic box (Table 20, symbol I)", "assay_type": "in vivo, wild oat (Avena fatua)", "method_in_brief": "as §1"}, "[3]": {"conditions": "amount of applied herbicide 320 g/ha, foliage application after 14-day growth, evaluated three weeks after application"}, "[4]": {"conditions": "foliage application, 320 g/ha, three weeks after application"}, "[5]": {"conditions": "amount of applied herbicide 320 g/ha"}, "[6]": {"conditions": "320 g/ha, foliage application after 14-day growth, evaluated three weeks after application"}},
  "data": [
    {"smiles": "Cc1nn(C)c(=O)c(-c2c(-c3ccc(C#N)cc3)sc3cc(Cl)c(Cl)cc23)c1O", "note": "[5-049]", "values": [
      {"measurement": "Herbicidal effect by foliage application, H: barnyard grass", "setting": "barnyard grass [1]; [3]", "result": "0 (Herbicidal rate of 5% or less (almost no effect))"},
      {"measurement": "Herbicidal effect by foliage application, N: redroot pigweed", "setting": "redroot pigweed; [3]", "result": "5 (Herbicidal rate of 90% or more (almost completely withered))"},
      {"measurement": "Herbicidal effect by foliage application, G: green foxtail", "setting": "green foxtail; [3]", "result": "2 (Herbicidal rate of 20% or more and less than 40%)"},
      {"measurement": "herbicidal effect on barnyard grass (H)", "setting": "barnyard grass [2]", "result": "3 (Herbicidal rate of 40% or more and less than 70%)"},
      {"measurement": "herbicidal effect on rice flat sedge (E)", "setting": "rice flat sedge", "result": "0 (Herbicidal rate of 5% or less (almost no effect))"},
      {"measurement": "Herbicidal effect by foliage application, J: blackgrass", "setting": "blackgrass; [3]", "result": "0 (Herbicidal rate of 5% or less (almost no effect))"},
      {"measurement": "Herbicidal effect by foliage application, K: Italian ryegrass", "setting": "Italian ryegrass; [3]", "result": "0 (Herbicidal rate of 5% or less (almost no effect))"},
      {"measurement": "Herbicidal effect by foliage application, P: chickweed", "setting": "chickweed; [3]", "result": "0 (Herbicidal rate of 5% or less (almost no effect))"},
      {"measurement": "Herbicidal effect by foliage application, R: persian speedwell", "setting": "persian speedwell; [3]", "result": "0 (Herbicidal rate of 5% or less (almost no effect))"},
      {"measurement": "herbicidal effect on Chinese sprangletop (D)", "setting": "Chinese sprangletop", "result": "0 (Herbicidal rate of 5% or less (almost no effect))"},
      {"measurement": "Herbicidal effect by foliage application, F: southern crabgrass", "setting": "southern crabgrass; [3]", "result": "0 (Herbicidal rate of 5% or less (almost no effect))"},
      {"measurement": "Herbicidal effect by foliage application, O: lambsquarters", "setting": "lambsquarters; [3]", "result": "4 (Herbicidal rate of 70% or more and less than 90%)"},
      {"measurement": "Herbicidal effect by foliage application, M: velvetleaf", "setting": "velvetleaf; [3]", "result": "1 (Herbicidal rate of 5% or more and less than 20%)"},
      {"measurement": "Herbicidal effect by foliage application, L: windgrass", "setting": "windgrass; [3]", "result": "3 (Herbicidal rate of 40% or more and less than 70%)"},
      {"measurement": "Herbicidal effect by foliage application, I: wild oat", "setting": "wild oat; [3]", "result": "0 (Herbicidal rate of 5% or less (almost no effect))"}
    ]},
    {"smiles": "COc1ccccc1-c1sc2cc(F)ccc2c1-c1c(OC(=O)c2ccccc2C)c(C)nn(C)c1=O", "note": "[3-022]", "values": [
      {"measurement": "H: barnyard grass, herbicidal effect grade", "setting": "barnyard grass [1]; [4]", "result": "0 (Herbicidal rate of 5% or less (almost no effect))"},
      {"measurement": "N: redroot pigweed, herbicidal effect grade", "setting": "redroot pigweed; [4]", "result": "3 (Herbicidal rate of 40% or more and less than 70%)"},
      {"measurement": "G: green foxtail, herbicidal effect grade", "setting": "green foxtail; [4]", "result": "0 (Herbicidal rate of 5% or less (almost no effect))"},
      {"measurement": "herbicidal effect on H: barnyard grass", "setting": "barnyard grass [2]; [5]", "result": "4 (Herbicidal rate of 70% or more and less than 90%)"},
      {"measurement": "herbicidal effect on E: rice flat sedge", "setting": "rice flat sedge; [5]", "result": "0 (Herbicidal rate of 5% or less (almost no effect))"},
      {"measurement": "J: blackgrass, herbicidal effect grade", "setting": "blackgrass; [4]", "result": "0 (Herbicidal rate of 5% or less (almost no effect))"},
      {"measurement": "K: Italian ryegrass, herbicidal effect grade", "setting": "Italian ryegrass; [4]", "result": "0 (Herbicidal rate of 5% or less (almost no effect))"},
      {"measurement": "P: chickweed, herbicidal effect grade", "setting": "chickweed; [4]", "result": "3 (Herbicidal rate of 40% or more and less than 70%)"},
      {"measurement": "R: persian speedwell, herbicidal effect grade", "setting": "persian speedwell; [4]", "result": "0 (Herbicidal rate of 5% or less (almost no effect))"},
      {"measurement": "herbicidal effect on D: Chinese sprangletop", "setting": "Chinese sprangletop; [5]", "result": "2 (Herbicidal rate of 20% or more and less than 40%)"},
      {"measurement": "F: southern crabgrass, herbicidal effect grade", "setting": "southern crabgrass; [4]", "result": "0 (Herbicidal rate of 5% or less (almost no effect))"},
      {"measurement": "O: lambsquarters, herbicidal effect grade", "setting": "lambsquarters; [4]", "result": "0 (Herbicidal rate of 5% or less (almost no effect))"},
      {"measurement": "M: velvetleaf, herbicidal effect grade", "setting": "velvetleaf; [4]", "result": "0 (Herbicidal rate of 5% or less (almost no effect))"},
      {"measurement": "L: windgrass, herbicidal effect grade", "setting": "windgrass; [4]", "result": "0 (Herbicidal rate of 5% or less (almost no effect))"},
      {"measurement": "I: wild oat, herbicidal effect grade", "setting": "wild oat; [4]", "result": "0 (Herbicidal rate of 5% or less (almost no effect))"}
    ]},
    {"smiles": "CCCC(=O)Oc1c(C)nn(C)c(=O)c1-c1c(-c2ccc(OC(F)(F)F)cc2)sc2cc(Cl)ccc12", "note": "[3-150]", "values": [
      {"measurement": "herbicidal effect on H: barnyard grass (evaluation grade 0-5)", "setting": "barnyard grass [1]; [6]", "result": "3 (Herbicidal rate of 40% or more and less than 70%)"},
      {"measurement": "herbicidal effect on N: redroot pigweed (evaluation grade 0-5)", "setting": "redroot pigweed; [6]", "result": "3 (Herbicidal rate of 40% or more and less than 70%)"},
      {"measurement": "herbicidal effect on G: green foxtail (evaluation grade 0-5)", "setting": "green foxtail; [6]", "result": "0 (Herbicidal rate of 5% or less (almost no effect))"},
      {"measurement": "herbicidal effect on barnyard grass (H)", "setting": "barnyard grass [2]", "result": "5 (Herbicidal rate of 90% or more (almost completely withered))"},
      {"measurement": "herbicidal effect on rice flat sedge (E)", "setting": "rice flat sedge", "result": "2 (Herbicidal rate of 20% or more and less than 40%)"},
      {"measurement": "herbicidal effect on J: blackgrass (evaluation grade 0-5)", "setting": "blackgrass; [6]", "result": "0 (Herbicidal rate of 5% or less (almost no effect))"},
      {"measurement": "herbicidal effect on K: Italian ryegrass (evaluation grade 0-5)", "setting": "Italian ryegrass; [6]", "result": "0 (Herbicidal rate of 5% or less (almost no effect))"},
      {"measurement": "herbicidal effect on P: chickweed (evaluation grade 0-5)", "setting": "chickweed; [6]", "result": "3 (Herbicidal rate of 40% or more and less than 70%)"},
      {"measurement": "herbicidal effect on R: persian speedwell (evaluation grade 0-5)", "setting": "persian speedwell; [6]", "result": "5 (Herbicidal rate of 90% or more (almost completely withered))"},
      {"measurement": "herbicidal effect on Chinese sprangletop (D)", "setting": "Chinese sprangletop", "result": "3 (Herbicidal rate of 40% or more and less than 70%)"},
      {"measurement": "herbicidal effect on F: southern crabgrass (evaluation grade 0-5)", "setting": "southern crabgrass; [6]", "result": "0 (Herbicidal rate of 5% or less (almost no effect))"},
      {"measurement": "herbicidal effect on O: lambsquarters (evaluation grade 0-5)", "setting": "lambsquarters; [6]", "result": "4 (Herbicidal rate of 70% or more and less than 90%)"},
      {"measurement": "herbicidal effect on M: velvetleaf (evaluation grade 0-5)", "setting": "velvetleaf; [6]", "result": "2 (Herbicidal rate of 20% or more and less than 40%)"},
      {"measurement": "herbicidal effect on L: windgrass (evaluation grade 0-5)", "setting": "windgrass; [6]", "result": "0 (Herbicidal rate of 5% or less (almost no effect))"},
      {"measurement": "herbicidal effect on I: wild oat (evaluation grade 0-5)", "setting": "wild oat; [6]", "result": "0 (Herbicidal rate of 5% or less (almost no effect))"}
    ]}
  ]
}
